{"source": "patent US11291643B2", "about": "“Methods of treating hypertriglyceridemia” (Amarin Pharmaceuticals Ireland Limited, priority 2011, dated 2022)", "test_system": "patients with fasting triglyceride levels ≥500 mg/dL", "assay": "Lipoprotein particle concentration by NMR spectroscopy in the clinical study", "format": "in vivo, human", "details": "for IDL particle concentration, median change from baseline / Large HDL particle concentration, median change from baseline / Large LDL particle concentration, median change from baseline / Large VLDL particle concentration, median change from baseline / Medium HDL particle concentration, median change from baseline / Medium VLDL particle concentration, median change from baseline / Small HDL particle concentration, median change from baseline / Small LDL particle concentration, median change from baseline / Small VLDL particle concentration, median change from baseline / Total HDL particle concentration, median change from baseline / Total LDL particle concentration, median change from baseline / Total VLDL particle concentration, median change from baseline: baseline to study end; for IDL particle concentration, end-of-treatment value (median) / Large HDL particle concentration, end-of-treatment value (median) / Large LDL particle concentration, end-of-treatment value (median) / Large VLDL particle concentration, end-of-treatment value (median) / Medium HDL particle concentration, end-of-treatment value (median) / Medium VLDL particle concentration, end-of-treatment value (median) / Small HDL particle concentration, end-of-treatment value (median) / Small LDL particle concentration, end-of-treatment value (median) / Small VLDL particle concentration, end-of-treatment value (median) / Total HDL particle concentration, end-of-treatment value (median) / Total LDL particle concentration, end-of-treatment value (median) / Total VLDL particle concentration, end-of-treatment value (median): study end", "method": "Lipoprotein particle concentrations and sizes were measured with nuclear magnetic resonance spectroscopy in the above described clinical trial. Lipoprotein particle size and concentration parameters were obtained from fasting blood samples. Lipoprotein particle size and concentrations are measured by nuclear magnetic resonance (NMR) spectroscopy at LipoScience, Inc. (Raleigh, N.C.) using the LipoProfile-3 algorithm. VLDL, LDL, and HDL subclasses of different size were quantified from the amplitudes of their spectroscopically-distinct lipid methyl group NMR signals.\nConcentrations of the following subclasses of lipoproteins were analyzed in this study: small LDL (18.0-20.5 nm), large LDL (20.5-23.0 nm), intermediate-density lipoprotein (IDL; 23.0-29.0 nm), large high-density lipoprotein (HDL; 9.4-14.0 nm), medium HDL (8.2-9.4 nm), small HDL (7.3-8.2 nm), large very-low-density lipoprotein (VLDL; >60 nm), medium VLDL (42-60 nm), and small VLDL (29-42 nm).\nSubjects with missing baseline or Week 12 measurements, due to either missing laboratory samples or un-reportable values, were excluded from this analysis. The median difference of each lipoprotein particle variable (percent change from baseline) between each AMR101 treatment group and the placebo group was evaluated with a nonparametric test using the Hodges-Lehmann medians of the differences between treatment groups and the Wilcoxon rank-sum test (significance level 0.05). All statistical analyses were carried out using SAS 9.2 software.", "key": {"[1]": {"details": "4 g/day vs placebo, Hodges-Lehmann median"}, "[2]": {"details": "4 g/day vs placebo, stated as reduction"}}, "data": [{"compound": "CC/C=C\\C/C=C\\C/C=C\\C/C=C\\C/C=C\\CCCC(=O)OCC", "note": "[AMR101, ethyl eicosapentaenoate]", "values": [{"measurement": "IDL particle concentration, median change from baseline", "setting": "2 g/day, n = 63", "result": 0.8, "unit": "%"}, {"measurement": "Large HDL particle concentration, median change from baseline", "setting": "2 g/day, n = 63", "result": "−1.6", "unit": "%"}, {"measurement": "Large LDL particle concentration, median change from baseline", "setting": "2 g/day, n = 63", "result": "−20.9", "unit": "%"}, {"measurement": "Large VLDL particle concentration, median change from baseline", "setting": "2 g/day, n = 63", "result": "−2.5", "unit": "%"}, {"measurement": "Medium HDL particle concentration, median change from baseline", "setting": "2 g/day, n = 63", "result": 3.9, "unit": "%"}, {"measurement": "Medium VLDL particle concentration, median change from baseline", "setting": "2 g/day, n = 63", "result": 18.8, "unit": "%"}, {"measurement": "Small HDL particle concentration, median change from baseline", "setting": "2 g/day, n = 63", "result": "−3.2", "unit": "%"}, {"measurement": "Small LDL particle concentration, median change from baseline", "setting": "2 g/day, n = 63", "result": 9.5, "unit": "%"}, {"measurement": "Small VLDL particle concentration, median change from baseline", "setting": "2 g/day, n = 63", "result": 11.5, "unit": "%"}, {"measurement": "Total HDL particle concentration, median change from baseline", "setting": "2 g/day, n = 63", "result": "−3.3", "unit": "%"}, {"measurement": "Total LDL particle concentration, median change from baseline", "setting": "2 g/day, n = 63", "result": 12.6, "unit": "%"}, {"measurement": "Total VLDL particle concentration, median change from baseline", "setting": "2 g/day, n = 63", "result": 13.1, "unit": "%"}, {"measurement": "IDL particle concentration, end-of-treatment value (median)", "setting": "2 g/day, n = 63", "result": 144.0, "unit": "nmol/L"}, {"measurement": "Large HDL particle concentration, end-of-treatment value (median)", "setting": "2 g/day, n = 63", "result": 2.3, "unit": "µmol/L"}, {"measurement": "Large LDL particle concentration, end-of-treatment value (median)", "setting": "2 g/day, n = 63", "result": 51.0, "unit": "nmol/L"}, {"measurement": "Large VLDL particle concentration, end-of-treatment value (median)", "setting": "2 g/day, n = 63", "result": 29.9, "unit": "nmol/L"}, {"measurement": "Medium HDL particle concentration, end-of-treatment value (median)", "setting": "2 g/day, n = 63", "result": 8.7, "unit": "µmol/L"}, {"measurement": "Medium VLDL particle concentration, end-of-treatment value (median)", "setting": "2 g/day, n = 63", "result": 93.8, "unit": "nmol/L"}, {"measurement": "Small HDL particle concentration, end-of-treatment value (median)", "setting": "2 g/day, n = 63", "result": 21.5, "unit": "µmol/L"}, {"measurement": "Small LDL particle concentration, end-of-treatment value (median)", "setting": "2 g/day, n = 63", "result": 1100, "unit": "nmol/L"}, {"measurement": "Small VLDL particle concentration, end-of-treatment value (median)", "setting": "2 g/day, n = 63", "result": 53.9, "unit": "nmol/L"}, {"measurement": "Total HDL particle concentration, end-of-treatment value (median)", "setting": "2 g/day, n = 63", "result": 33.4, "unit": "µmol/L"}, {"measurement": "Total LDL particle concentration, end-of-treatment value (median)", "setting": "2 g/day, n = 63", "result": 1464, "unit": "nmol/L"}, {"measurement": "Total VLDL particle concentration, end-of-treatment value (median)", "setting": "2 g/day, n = 63", "result": 190.1, "unit": "nmol/L"}, {"measurement": "Large VLDL particle concentration, placebo-adjusted median percent change from baseline", "setting": "[1]", "result": "−27.9", "unit": "%"}, {"measurement": "Small LDL particle concentration, placebo-adjusted median percent change from baseline", "setting": "[1]", "result": "−25.6", "unit": "%"}, {"measurement": "Small VLDL particle concentration, placebo-adjusted median percent change from baseline", "setting": "[1]", "result": 5.3, "unit": "%"}, {"measurement": "Total HDL particle concentration, placebo-adjusted median percent change from baseline", "setting": "[1]", "result": "−7.4", "unit": "%"}, {"measurement": "Total LDL particle concentration, placebo-adjusted median percent change from baseline", "setting": "[1]", "result": "−16.3", "unit": "%"}, {"measurement": "Reduction of small LDL particle concentration", "setting": "[2]", "result": 25.6, "unit": "%"}, {"measurement": "Reduction of total LDL particle concentration (IDL, small LDL and large LDL particles)", "setting": "[2]", "result": 16.3, "unit": "%"}, {"measurement": "IDL particle concentration, median change from baseline", "setting": "4 g/day, n = 61", "result": 19.2, "unit": "%"}, {"measurement": "Large HDL particle concentration, median change from baseline", "setting": "4 g/day, n = 61", "result": 8.3, "unit": "%"}, {"measurement": "Large LDL particle concentration, median change from baseline", "setting": "4 g/day, n = 61", "result": "−32.3", "unit": "%"}, {"measurement": "Large VLDL particle concentration, median change from baseline", "setting": "4 g/day, n = 61", "result": "−24.5", "unit": "%"}, {"measurement": "Medium HDL particle concentration, median change from baseline", "setting": "4 g/day, n = 61", "result": "−18.3", "unit": "%"}, {"measurement": "Medium VLDL particle concentration, median change from baseline", "setting": "4 g/day, n = 61", "result": 36.4, "unit": "%"}, {"measurement": "Small HDL particle concentration, median change from baseline", "setting": "4 g/day, n = 61", "result": "−5.1", "unit": "%"}, {"measurement": "Small LDL particle concentration, median change from baseline", "setting": "4 g/day, n = 61", "result": "−9.7", "unit": "%"}, {"measurement": "Small VLDL particle concentration, median change from baseline", "setting": "4 g/day, n = 61", "result": 4.3, "unit": "%"}, {"measurement": "Total HDL particle concentration, median change from baseline", "setting": "4 g/day, n = 61", "result": "−7.1", "unit": "%"}, {"measurement": "Total LDL particle concentration, median change from baseline", "setting": "4 g/day, n = 61", "result": "−0.1", "unit": "%"}, {"measurement": "Total VLDL particle concentration, median change from baseline", "setting": "4 g/day, n = 61", "result": 15.2, "unit": "%"}, {"measurement": "IDL particle concentration, end-of-treatment value (median)", "setting": "4 g/day, n = 61", "result": 185.0, "unit": "nmol/L"}, {"measurement": "Large HDL particle concentration, end-of-treatment value (median)", "setting": "4 g/day, n = 61", "result": 2.3, "unit": "µmol/L"}, {"measurement": "Large LDL particle concentration, end-of-treatment value (median)", "setting": "4 g/day, n = 61", "result": 64.0, "unit": "nmol/L"}, {"measurement": "Large VLDL particle concentration, end-of-treatment value (median)", "setting": "4 g/day, n = 61", "result": 21.2, "unit": "nmol/L"}, {"measurement": "Medium HDL particle concentration, end-of-treatment value (median)", "setting": "4 g/day, n = 61", "result": 8.4, "unit": "µmol/L"}, {"measurement": "Medium VLDL particle concentration, end-of-treatment value (median)", "setting": "4 g/day, n = 61", "result": 106.8, "unit": "nmol/L"}, {"measurement": "Small HDL particle concentration, end-of-treatment value (median)", "setting": "4 g/day, n = 61", "result": 21.6, "unit": "µmol/L"}, {"measurement": "Small LDL particle concentration, end-of-treatment value (median)", "setting": "4 g/day, n = 61", "result": 998.0, "unit": "nmol/L"}, {"measurement": "Small VLDL particle concentration, end-of-treatment value (median)", "setting": "4 g/day, n = 61", "result": 52.5, "unit": "nmol/L"}, {"measurement": "Total HDL particle concentration, end-of-treatment value (median)", "setting": "4 g/day, n = 61", "result": 30.8, "unit": "µmol/L"}, {"measurement": "Total LDL particle concentration, end-of-treatment value (median)", "setting": "4 g/day, n = 61", "result": 1419, "unit": "nmol/L"}, {"measurement": "Total VLDL particle concentration, end-of-treatment value (median)", "setting": "4 g/day, n = 61", "result": 200.3, "unit": "nmol/L"}]}]}
